Read-outs that look alike come from different tables or passages of the source.
What was measured:
[1] = molecular target: T1, Human Recombinant Gelatinase A (MMP-2) (Homo sapiens, UniProt P08253); assay: P218 quenched fluorescence assay for MMP inhibition: MMP-2; assay type: biochemical
T1 sequence (P08253 110-660): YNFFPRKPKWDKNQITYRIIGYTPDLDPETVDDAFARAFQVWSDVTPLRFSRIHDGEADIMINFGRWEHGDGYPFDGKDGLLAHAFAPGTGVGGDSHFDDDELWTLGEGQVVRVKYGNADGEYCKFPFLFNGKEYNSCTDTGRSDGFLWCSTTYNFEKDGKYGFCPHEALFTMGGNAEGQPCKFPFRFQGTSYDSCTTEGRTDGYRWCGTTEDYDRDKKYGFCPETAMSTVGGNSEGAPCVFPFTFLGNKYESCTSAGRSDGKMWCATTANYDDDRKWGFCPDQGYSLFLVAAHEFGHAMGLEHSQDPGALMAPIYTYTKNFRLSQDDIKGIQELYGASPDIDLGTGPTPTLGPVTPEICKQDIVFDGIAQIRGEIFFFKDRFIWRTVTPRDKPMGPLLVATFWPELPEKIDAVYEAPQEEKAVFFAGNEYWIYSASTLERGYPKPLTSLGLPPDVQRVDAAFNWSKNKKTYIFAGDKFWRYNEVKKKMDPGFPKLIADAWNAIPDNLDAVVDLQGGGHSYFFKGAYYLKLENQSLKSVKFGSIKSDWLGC

[2] = molecular target: T2, Recombinant Human CHO Stromelysin (MMP-3) (Homo sapiens, UniProt P08254); assay: P218 quenched fluorescence assay for MMP inhibition: MMP-3; assay type: biochemical; details: P218 substrate 6 μM, pH 6.5, 25 min at 37° C.; read-out: MMP-3 Fluorogenic IC-50
T2 construct: made in house; host or cells: CHO cells (as described by Housley et al., J. Biol. Chem. 268, 4481, 1993)
T2 sequence (P08254 100-477): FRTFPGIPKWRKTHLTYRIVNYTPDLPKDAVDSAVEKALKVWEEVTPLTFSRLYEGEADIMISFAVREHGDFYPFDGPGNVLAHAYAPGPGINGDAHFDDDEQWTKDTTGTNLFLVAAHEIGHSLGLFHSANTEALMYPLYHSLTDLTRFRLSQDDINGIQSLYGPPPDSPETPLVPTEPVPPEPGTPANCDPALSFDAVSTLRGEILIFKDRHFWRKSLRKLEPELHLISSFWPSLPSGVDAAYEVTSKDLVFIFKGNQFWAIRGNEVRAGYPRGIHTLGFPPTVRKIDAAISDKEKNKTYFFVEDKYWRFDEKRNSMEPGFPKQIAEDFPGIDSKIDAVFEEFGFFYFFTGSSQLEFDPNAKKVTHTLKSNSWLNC
Excerpt: (§1) P218 Quenched Fluorescence Assay for MMP Inhibition:
(§2) The P218 quenched fluorescence assay (Microfluorometric Profiling Assay) is a modification of that originally described by Knight, et al., FEBS Lett. 296, 263, 1992 for a related substance and a variety of matrix metalloproteinases (MMPs) in cuvettes. The assay was run with each invention compound and the three MMPs, MMP-3, MMP-9 and MMP-2, analyzed in parallel, adapted as follows for a 96-well microtiter plate and a Hamilton AT® workstation.
(§3) P218 Fluorogenic Substrate:
(§4) P218 is a synthetic substrate containing a 4-acetyl-7-methoxycoumarin (MCA) group in the N-terminal position and a 3-[2,4-dinitrophenyl]-L-2,3-diaminopropionyl (DPA) group internally. This is a modification of a peptide reported by Knight (1992) that was used as a substrate for matrix metalloproteinases. Once the P218 peptide is cleaved (putative clip site at the Ala-Leu bond), the fluorescence of the MCA group can be detected on a fluorometer with excitation at 328 nm and emission at 393 nm. P218 is currently being produced BACHEM exclusively for Bayer. P218 has the structure:
(§5) H-MCA-Pro-Lys-Pro-Leu-Ala-Leu-DPA-Ala-Arg-NH2 (MW 1332.2)
Recombinant Human CHO Stromelysin (MMP-3)
Recombinant Human CHO Pro-MMP-3: Human CHO pro-stromelysin-257 (pro-MMP-3) was expressed and purified as described by Housley, et al., J. Biol. Chem. 268, 4481, 1993.
Activation of Pro-MMP-3: Pro-MMP-3 at 1.72 μM (100 μg/mL) in 5 mM Tris at pH 7.5, 5 mM CaCl2, 25 mM NaCl, and 0.005% Brij-35 MMP-3) activation buffer) was activated by incubation with TPCK (N-tosyl-(L)-phenylalanine chloromethyl ketone) trypsin (1:100 w/w to pro-MMP-3) at 25° C. for 30 min. The reaction was stopped by addition of soybean trypsin inhibitor (SBTI; 5:1 w/w to trypsin concentration). This activation protocol results in the formation of 45 kDa active MMP-3, which still contains the C-terminal portion of the enzyme.
(§6) Hamiltion Microlab AT Plus: The MMP-Profiling Assay is performed robotically on a Hamilton MicroLab AT Plus®. The Hamilton is programmed to: (1) serially dilute up to 11 potential inhibitors automatically from a 2.5 mM stock in 100% DMSO; (2) distribute substrate followed by inhibitor into a 96 well Cytofluor plate; and (3) add a single enzyme to the plate with mixing to start the reaction. Subsequent plates for each additional enzyme are prepared automatically by beginning the program at the substrate addition point, remixing the diluted inhibitors and beginning the reaction by addition of enzyme. In this way, all MMP assays were done using the same inhibitor dilutions.
(§7) Millipore Cytofluor II. Following incubation, the plate was read on a Cytofluor II fluorometric plate reader with excitation at 340 nm and emission at 395 nm with the gain set at 80.
(§8) Microfluorometric Reaction Buffer (MRB): Dilution of test compounds, enzymes, and P218 substrate for the microfluorometric assay were made in microfluorometric reaction buffer consisting of 50 mM 2-(N-morpholino)ethanesulfonic acid (MES) at pH 6.5 with 10 mM CaCl2, 150 mM NaCl, 0.005% Brij-35 and 1% DMSO.
(§9) MMP Microfluorometric Profiling Assay. The assay is done with a final substrate concentration of 6 μM P218 and approximately 0.5 to 0.8 nM MMP with variable drug concentrations. The Hamilton is programmed to serially dilute up to 11 compounds from a 2.5 mM stock (100% DMSO) to 10x the final compounds concentrations in the assay. Initially, the instrument delivers various amounts of microfluoromentric reaction buffer (MRB) to a 96 tube rack of 1 ml Marsh dilution tubes. The instrument then picks up 20 μl of inhibitor (2.5 mM) from the sample rack and mixes it with a buffer in row A of the Marsh rack, resulting in a 50 μM drug concentration. The inhibitors are then serially diluted to 10, 5, 1, 0.2, 0.05 and 0.01 μM. […]

[3] = molecular target: T3, Human Recombinant Gelatinase B (MMP-9) (Homo sapiens, UniProt P14780); assay: P218 quenched fluorescence assay for MMP inhibition: MMP-9; assay type: biochemical; details: P218 substrate 6 μM, pH 6.5, 25 min at 37° C.; for IC50: read-out: MMP-9 Fluorogenic IC-50; for MMP-9 Fluorogenic, I (percent inhibition): inhibitor concentration not given
T3 construct: made in house; host or cells: baculovirus protein expression system
T3 sequence (P14780 107-707 limits assumed): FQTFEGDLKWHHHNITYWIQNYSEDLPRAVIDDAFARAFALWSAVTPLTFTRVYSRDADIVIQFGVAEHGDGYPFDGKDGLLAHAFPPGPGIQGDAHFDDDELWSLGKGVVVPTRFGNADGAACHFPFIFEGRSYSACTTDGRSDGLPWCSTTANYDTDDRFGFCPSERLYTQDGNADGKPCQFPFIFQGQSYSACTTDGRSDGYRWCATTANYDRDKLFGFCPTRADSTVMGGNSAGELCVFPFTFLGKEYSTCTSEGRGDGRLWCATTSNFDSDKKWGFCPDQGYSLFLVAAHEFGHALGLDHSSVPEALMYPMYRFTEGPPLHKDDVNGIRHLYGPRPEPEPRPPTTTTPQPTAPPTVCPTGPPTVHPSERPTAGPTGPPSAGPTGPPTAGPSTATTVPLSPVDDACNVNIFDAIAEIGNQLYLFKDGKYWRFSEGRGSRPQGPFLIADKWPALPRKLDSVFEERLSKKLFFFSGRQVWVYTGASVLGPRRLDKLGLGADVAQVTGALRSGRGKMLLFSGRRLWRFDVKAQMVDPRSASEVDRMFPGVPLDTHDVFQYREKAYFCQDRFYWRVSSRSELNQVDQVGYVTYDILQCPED
Excerpt: as §1, §2, §3, §4, §5
Preparation of Human Recombinant Pro-Gelatinase B (MMP-9):
Recombinant Human Pro-MMP-9: Human pro-gelatinase B (pro-MMP-9) derived from U937 cDNA as described by Wilhelm, et al. J. Biol. Chem. 264, 17213, 1989 was expressed as the full-length form using a baculovirus protein expression system. The pro-enzyme was purified using methods previously described by Hibbs, et al. J. Biol. Chem. 260, 2493, 1984.
Activation of Pro-MMP-9: Pro-MMP-2 20 μg/ml in 50 mM Tris at pH 7.4, 10 mM CaCl2, 150 mM NaCl, and 0.005% Brij-35 (MMP-9 activation buffer) was activated by incubation with 0.5 mM p-aminophenylmercuric acetate (APMA) for 3.5 h at 37° C. The enzyme was dialyzed against the same buffer to revmove the APMA.
as §6, §7, §8, §9

[4] = system: human ovarian carcinoma xenografts; details: given intraperitoneally; cited from earlier work
human colon tumor = details: given intraperitoneally; orthotopic model in nude mice; cited from earlier work
[5] = Child, et al., J. Pharm. Sci. 66, 466, 1977; cited from earlier work
[6] = P218 substrate 6 μM, pH 6.5, 25 min at 37° C., read-out: MMP-2 Fluorogenic IC-50

| SMILES | IC50 [1, 6] [nM] | IC50 [2] [nM] | IC50 [3] [nM] | other results |
| --- | --- | --- | --- | --- |
| CC(=O)OCCC#Cc1ccc(-c2ccc(C(=O)CC(CCCc3ccccc3)C(=O)O)cc2)cc1 (stereo not shown) [IX] | 37 | 57 | 542 | – |
| O=C(CC(CCCc1ccccc1)C(=O)O)c1ccc(-c2ccc(C#CCO)cc2)cc1 (racemic) [Compound I] | 4 | 21 | 106 | – |
| O=C(CC(CCN1C(=O)c2ccccc2C1=O)C(=O)O)c1ccc(-c2ccc(C#CCO)cc2)cc1 (stereo not shown) [Compound XVI] | – | 4 | 2 | IC50 [1]: 1 nM |
| O=C(CC(CCCc1ccccc1)C(=O)O)c1ccc(-c2ccc(C#Cc3ccccc3)cc2)cc1 (stereo not drawn) [XIII, λ-oxo-4'-(phenylethynyl)-α-(3-phenylpropyl)-[1,1'-biphenyl]-4-butanoic acid] | 245 | 405 | – | – |
| O=C(O)CCC#Cc1ccc(-c2ccc(C(=O)CC(CCCc3ccccc3)C(=O)O)cc2)cc1 (stereo not drawn) [Compound X, 4'-(4-carboxy-1-butynyl)-λ-oxo-α-(3-phenylpropyl)-[1,1'-biphenyl]-4-butanoic acid] | 108 | 203 | – | MMP-9 Fluorogenic, I (percent inhibition) [3]: 27% |
| CCCN(CC#Cc1ccc(-c2ccc(C(=O)CC(CCCc3ccccc3)C(=O)O)cc2)cc1)CCC (stereo not shown) [Compound V] | 235 | 327 | 2630 | – |
| CNC(=O)[C@H](Cc1ccccc1)NC(=O)[C@H](CC(C)C)[C@H](CSc1cccs1)C(=O)NO [batimastat] | – | – | – | survival of mice bearing human ovarian carcinoma xenografts [4]: prolongs the survival of mice; human colon tumor growth and spread (human colon tumor): inhibits human colon tumor growth and spread |
| CC(=O)OCC#Cc1ccc(-c2ccc(C(=O)CC(CCCc3ccccc3)C(=O)O)cc2)cc1 (stereo not drawn) [Compound VI, 4'-[3-(acetyloxy)-1-propynyl]-λ-oxo-α-(3-phenylpropyl)-[1,1'-biphenyl]-4-butanoic acid] | 14 | 36 | 834 | – |
| O=C(CC(CCCc1ccccc1)C(=O)O)c1ccc(-c2ccc(C#Cc3cccc(O)c3)cc2)cc1 (stereo not shown) [XIV] | 85 | 125 | – | MMP-9 Fluorogenic, I (percent inhibition) [3]: 46% |
| CCOC(=O)OCC#Cc1ccc(-c2ccc(C(=O)CC(CCCc3ccccc3)C(=O)O)cc2)cc1 (stereo not drawn) [Compound VII, 4'-[3-[(ethoxycarbonyl)oxy]-1-propynyl]-λ-oxo-α-(3-phenylpropyl)-[1,1'-biphenyl]-4-butanoic acid] | 103 | 67 | 2460 | – |
| O=C(CC(C(=O)O)c1ccccc1)c1ccc(-c2ccccc2)cc1 (stereo not shown) [XLIX] | – | – | – | anti-inflammatory activity (in words) [5]: inactive |
| COCC#Cc1ccc(-c2ccc(C(=O)CC(CCCc3ccccc3)C(=O)O)cc2)cc1 (stereo not drawn) [IV, 4'-(3-methoxy-1-propynyl)-λ-oxo-α-(3-phenylpropyl)-[1,1'-biphenyl]-4-butanoic acid] | 21 | 38 | 704 | – |
| O=CCCCC#Cc1ccc(-c2ccc(C(=O)CC(CCCc3ccccc3)C(=O)O)cc2)cc1 (stereo not drawn) [Compound XI, λ-oxo-4'-(5-oxo-1-pentynyl)-α-(3-phenylpropyl)-[1,1'biphenyl]-4-butanoic acid] | 596 | 1730 | – | MMP-9 Fluorogenic, I (percent inhibition) [3]: 24% |
| O=C(O)CC(C(=O)c1ccc(-c2ccccc2)cc1)c1ccccc1 (stereo not shown) [LXXVII] | – | – | – | anti-inflammatory activity (in words) [5]: inactive |
| O=C(C[C@H](CCCc1ccccc1)C(=O)O)c1ccc(-c2ccc(C#CCO)cc2)cc1 [II, S-4'-(3-hydroxy-1-propynyl)-λ-oxo-α-(3-phenylpropyl)-[1,1'-biphenyl]-4-butanoic acid] | 252 | 2180 | – | MMP-9 Fluorogenic, I (percent inhibition) [3]: 35% |
| CC(CC(=O)c1ccc(-c2ccccc2)cc1)C(=O)O (stereo not shown) [compound XLVII] | – | – | – | anti-inflammatory activity (in words) [5]: inactive |
| O=C(C[C@@H](CCCc1ccccc1)C(=O)O)c1ccc(-c2ccc(C#CCO)cc2)cc1 [III] | 1 | 5 | 37 | – |
| O=C(CC(CCCc1ccccc1)C(=O)O)c1ccc(-c2ccc(C#CCCCCO)cc2)cc1 (stereo not shown) [XII] | 36 | 56.6 | 614 | – |
| O=C(CC(CCCc1ccccc1)C(=O)O)c1ccc(-c2ccc(C#CCCO)cc2)cc1 (stereo not drawn) [VIII, 4'-(4-hydroxy-1-butynyl)-λ-oxo-α-(3-phenylpropyl)-[1,1'-biphenyl]-4-butanoic acid] | 6 | 32 | 122 | – |
| O=C(CC(CCN1C(=O)c2ccccc2C1=O)C(=O)O)c1ccc(-c2ccc(C#CCOCc3ccccc3)cc2)cc1 (stereo not drawn) [Compound XV, 1,3-dihydro-1,3-dioxo-α-[2-oxo-2-[4'-[3(phenylmethoxy)-1-propynyl][1,1'-biphenyl]-4-yl]ethyl]-2H-isoindole-2-butanoic acid] | 5 | 11 | 40 | – |
